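Test compounds were applied to cells in 96-well plates for 48 hours at 5 doses. GI50: concentration for 50% inhibition of growth. TGI marks complete inhibition of growth.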
Assays:
Assay in all cases: growth of human tumour cells (NCI), 48 h
U251 CNS = test system: U251 CNS
SF-268 CNS = test system: SF-268 CNS
SF-295 CNS = test system: SF-295 CNS
SK-MEL-28 melanoma = test system: SK-MEL-28 melanoma
CAKI-1 renal = test system: CAKI-1 renal
SW-620 colon = test system: SW-620 colon
IGROV1 ovarian = test system: IGROV1 ovarian
UACC-62 melanoma = test system: UACC-62 melanoma
HCT-15 colon = test system: HCT-15 colon
HOP-62 NSCLC = test system: HOP-62 NSCLC

## CCCCCCCCCCCCCC[n+]1ccc(C)cc1
U251 CNS
  GI50: 0.437 µM
  TGI: 1.65 µM
SF-268 CNS
  GI50: 0.447 µM
  TGI: 1.7 µM
SF-295 CNS
  GI50: 3.25 µM
  TGI: 17.8 µM
SK-MEL-28 melanoma
  GI50: 1.44 µM
  TGI: 3.09 µM
CAKI-1 renal
  GI50: 0.933 µM
  TGI: 2.66 µM
SW-620 colon
  GI50: 0.945 µM
  TGI: 3.88 µM
IGROV1 ovarian
  GI50: 0.349 µM
  TGI: 0.953 µM
UACC-62 melanoma
  GI50: 1.08 µM
  TGI: 2.57 µM
HCT-15 colon
  GI50: 4.01 µM
  TGI: 22.4 µM
HOP-62 NSCLC
  GI50: 1.27 µM
  TGI: 2.61 µM

## O=C(O)/C=C/c1c[nH]c(=O)[nH]c1=O
U251 CNS
  TGI: > 500 µM
SF-268 CNS
  TGI: > 500 µM
SF-295 CNS
  GI50: > 158 µM
  TGI: > 232 µM
SK-MEL-28 melanoma
  TGI: > 500 µM
CAKI-1 renal
  TGI: > 500 µM
SW-620 colon
  TGI: > 500 µM
IGROV1 ovarian
  TGI: > 500 µM
UACC-62 melanoma
  TGI: > 500 µM
HCT-15 colon
  TGI: > 500 µM
HOP-62 NSCLC
  GI50: > 250 µM
  TGI: > 250 µM

## COc1ccc(-c2c(-c3ccccc3)c(C)nc3nc(SC)nc(SC)c23)cc1OC
U251 CNS
  TGI: 28.3 µM
SF-268 CNS
  TGI: > 100 µM
SF-295 CNS
  TGI: 31.5 µM
SK-MEL-28 melanoma
  TGI: > 100 µM
CAKI-1 renal
  TGI: > 100 µM
SW-620 colon
  TGI: > 100 µM
IGROV1 ovarian
  TGI: > 100 µM
UACC-62 melanoma
  TGI: 39.7 µM
HCT-15 colon
  TGI: > 100 µM
HOP-62 NSCLC
  TGI: 40.5 µM

## CC12CCC(CC1)C(C)(C)O2
U251 CNS
  TGI: 112 µM
SF-268 CNS
  TGI: 119 µM
SF-295 CNS
  TGI: 116 µM
SK-MEL-28 melanoma
  TGI: 131 µM
CAKI-1 renal
  GI50: 15.7 µM
  TGI: > 61.2 µM
SW-620 colon
  GI50: 9.09 µM
  TGI: 89.7 µM
IGROV1 ovarian
  TGI: 86.3 µM
UACC-62 melanoma
  TGI: 69.6 µM
HCT-15 colon
  TGI: 71.8 µM
HOP-62 NSCLC
  TGI: 52.2 µM

## CC(C)c1ccccc1SCc1cc(=O)cc(CSc2ccccc2C(C)C)o1
U251 CNS
  TGI: 86.8 µM
SF-268 CNS
  TGI: 33.4 µM
SF-295 CNS
  TGI: 67.5 µM
SK-MEL-28 melanoma
  TGI: 57.8 µM
CAKI-1 renal
  TGI: 49.4 µM
SW-620 colon
  TGI: 81.2 µM
IGROV1 ovarian
  TGI: 33.1 µM
UACC-62 melanoma
  TGI: 36.2 µM
HCT-15 colon
  TGI: 94.3 µM
HOP-62 NSCLC
  TGI: 43.6 µM

## Cc1cccc(N2C(=O)C3c4[nH]c5ccc(C)cc5c4C4CCC(C(C)(C)C)CC4C3C2=O)c1 (stereo not given)
U251 CNS
  TGI: 62.3 µM
SF-268 CNS
  TGI: 34.9 µM
SF-295 CNS
  TGI: 47.5 µM
SK-MEL-28 melanoma
  TGI: > 100 µM
CAKI-1 renal
  TGI: > 100 µM
SW-620 colon
  TGI: 59.6 µM
IGROV1 ovarian
  TGI: > 100 µM
UACC-62 melanoma
  TGI: > 100 µM
HCT-15 colon
  TGI: > 100 µM
HOP-62 NSCLC
  TGI: 30.9 µM

## CSc1nc(N)c2c(-c3ccccc3)c3c(nc2n1)CCCC3
U251 CNS
  TGI: > 100 µM
SF-295 CNS
  TGI: > 100 µM
SK-MEL-28 melanoma
  TGI: > 100 µM
CAKI-1 renal
  TGI: > 100 µM
SW-620 colon
  TGI: > 100 µM
IGROV1 ovarian
  TGI: > 100 µM
UACC-62 melanoma
  TGI: > 100 µM
HCT-15 colon
  TGI: > 100 µM
HOP-62 NSCLC
  TGI: > 100 µM

## C=C1C(=O)OC2CC(C)C3C4OC4C(O)C3(C)C(O)C12 (stereo not given)
U251 CNS
  TGI: 96.6 µM
SF-268 CNS
  TGI: 71.7 µM
SF-295 CNS
  TGI: 98 µM
SK-MEL-28 melanoma
  TGI: 71.2 µM
CAKI-1 renal
  TGI: 67.9 µM
SW-620 colon
  TGI: 54.6 µM
IGROV1 ovarian
  TGI: 52.1 µM
UACC-62 melanoma
  TGI: 43.8 µM
HCT-15 colon
  TGI: 77.6 µM
HOP-62 NSCLC
  TGI: 127 µM

## C=C=CC(NC(=O)c1ccccc1)(C(=O)O)C(F)(F)F (stereo not given)
U251 CNS
  TGI: > 100 µM
SF-268 CNS
  TGI: > 100 µM
SF-295 CNS
  TGI: > 100 µM
SK-MEL-28 melanoma
  TGI: > 100 µM
SW-620 colon
  TGI: > 100 µM
IGROV1 ovarian
  TGI: > 100 µM
HCT-15 colon
  TGI: > 100 µM

## C/C(N=NS(=O)(=O)c1ccc([N+](=O)[O-])cc1)=C1\C=CC=CN1O
U251 CNS
  TGI: > 100 µM
SF-268 CNS
  TGI: > 100 µM
SF-295 CNS
  TGI: > 100 µM
SK-MEL-28 melanoma
  TGI: > 100 µM
CAKI-1 renal
  TGI: > 100 µM
SW-620 colon
  TGI: > 100 µM
IGROV1 ovarian
  TGI: > 100 µM
UACC-62 melanoma
  TGI: > 100 µM
HCT-15 colon
  TGI: > 100 µM
HOP-62 NSCLC
  TGI: > 100 µM

## CCCCOP(C)(=O)C(NC(=O)OCC)(C(F)(F)F)C(F)(F)F (stereo not given)
U251 CNS
  TGI: > 100 µM
SF-268 CNS
  TGI: > 100 µM
SF-295 CNS
  TGI: > 100 µM
SK-MEL-28 melanoma
  TGI: > 100 µM
CAKI-1 renal
  TGI: > 100 µM
SW-620 colon
  TGI: > 100 µM
IGROV1 ovarian
  TGI: > 100 µM
UACC-62 melanoma
  TGI: > 100 µM
HCT-15 colon
  TGI: > 100 µM
HOP-62 NSCLC
  TGI: > 100 µM

## O=C1/C(=C/c2ccc(O)cc2)COc2ccc(O)c(O)c21
U251 CNS
  GI50: 2.62 µM
  TGI: 13.9 µM
SF-268 CNS
  GI50: 2.72 µM
  TGI: > 100 µM
SF-295 CNS
  GI50: 5.36 µM
  TGI: > 100 µM
SK-MEL-28 melanoma
  GI50: 3.81 µM
  TGI: 64.6 µM
CAKI-1 renal
  GI50: 3.02 µM
  TGI: 12.9 µM
SW-620 colon
  GI50: 2.11 µM
  TGI: 5.36 µM
IGROV1 ovarian
  GI50: 2.45 µM
  TGI: 7.32 µM
UACC-62 melanoma
  GI50: 1.99 µM
  TGI: 4.36 µM
HCT-15 colon
  GI50: 1.31 µM
  TGI: 4.07 µM
HOP-62 NSCLC
  GI50: 3.98 µM
  TGI: > 100 µM

## O=C(SCc1cccc2ccccc12)c1ccc(Cl)cc1
U251 CNS
  TGI: > 100 µM
SF-268 CNS
  TGI: > 100 µM
SF-295 CNS
  TGI: > 100 µM
SK-MEL-28 melanoma
  TGI: > 100 µM
CAKI-1 renal
  TGI: > 100 µM
SW-620 colon
  TGI: > 100 µM
IGROV1 ovarian
  TGI: > 100 µM
UACC-62 melanoma
  TGI: > 100 µM
HCT-15 colon
  TGI: > 100 µM
HOP-62 NSCLC
  TGI: > 100 µM
